Reference: ChEMBL document CHEMBL4052745 (Bioorg Med Chem, 2017)
Converted amounts (≈) assume the structure as drawn.

Test system: Bacillus anthracis
Experiment: Bactericidal activity against Bacillus anthracis
Assay type: functional
Details: not given
`CC(C)NC(=O)N[C@H](CNC(=O)N[C@@H](CCCCN)CNC(=O)N[C@H](CNC(=O)N[C@H](CCNC(=O)N[C@@H](CCCCN)CNC(=O)N[C@H](CNC(=O)N[C@@H](CCCCN)CNC(=O)N[C@H](CCC(N)=O)C(C)C)Cc1c[nH]c2ccccc12)C(C)C)Cc1c[nH]c2ccccc12)C(C)C` gave an EC50 of 7 to 10 µg/mL (≈ 4.99 to 7.13 µM).

Test system: not listed separately
Experiment: Cytotoxicity against mouse RAW264.7 cells after 4 hrs by MTT assay
Assay type: cell-based
Details: read-out: TD50
For `CC(C)NC(=O)N[C@H](CNC(=O)N[C@@H](CCCCN)CNC(=O)N[C@H](CNC(=O)N[C@H](CNC(=O)N[C@@H](CCCCN)CNC(=O)N[C@H](CNC(=O)N[C@@H](CCCCN)CNC(=O)N[C@H](CNC(N)=S)C(C)C)Cc1c[nH]c2ccccc12)C(C)C)Cc1c[nH]c2ccccc12)C(C)C`, the CC50 at 4 h was 21 µg/mL (≈ 14.9 µM). Compound `CC(C)NC(=O)N[C@H](CNC(=O)N[C@@H](CCCCN)CNC(=O)N[C@H](CNC(=O)N[C@H](CNC(=O)N[C@@H](CCCCN)CNC(=O)N[C@H](CNC(=O)N[C@@H](CCCCN)CNC(=S)N[C@H](CCC(N)=O)C(C)C)Cc1c[nH]c2ccccc12)C(C)C)Cc1c[nH]c2ccccc12)C(C)C` has a CC50 at 4 h of 20.5 µg/mL (≈ 14.6 µM). With `CC(C)NC(=O)N[C@H](CNC(=O)N[C@@H](CCCCN)CNC(=O)N[C@H](CNC(=O)N[C@H](CNC(=S)N[C@@H](CCCCN)CNC(=O)N[C@H](CNC(=O)N[C@@H](CCCCN)CNC(=O)N[C@H](CNC(N)=O)C(C)C)Cc1c[nH]c2ccccc12)C(C)C)Cc1c[nH]c2ccccc12)C(C)C` the CC50 at 4 h was 28 µg/mL (≈ 19.9 µM). Compound `CC(C)NC(=O)N[C@H](CNC(=O)N[C@@H](CCCCN)CNC(=O)N[C@H](CNC(=O)N[C@H](CNC(=O)N[C@@H](CCCCN)CNC(=O)N[C@H](CNC(=O)N[C@@H](CCCCN)CNC(=N)N[C@H](CCC(N)=O)C(C)C)Cc1c[nH]c2ccccc12)C(C)C)Cc1c[nH]c2ccccc12)C(C)C` has a CC50 at 4 h of 15 µg/mL (≈ 10.8 µM). In the case of `CC(C)NC(=O)N[C@H](CNC(=S)N[C@@H](CCCCN)CNC(=O)N[C@H](CNC(=O)N[C@H](CNC(=O)N[C@@H](CCCCN)CNC(=O)N[C@H](CNC(=O)N[C@@H](CCCCN)CNC(=O)N[C@H](CNC(N)=O)C(C)C)Cc1c[nH]c2ccccc12)C(C)C)Cc1c[nH]c2ccccc12)C(C)C`, the CC50 at 4 h was 26 µg/mL (≈ 18.5 µM).
